Laboratory results from US10227331B2 (priority 2015, dated 2019).

How the values were obtained:
[1] = system: Klebsiella pneumoniae expressing VIM-1 (IHMA599644); format: cell-based; conditions: with imipenem 1 μg/ml, 95% inhibition of bacterial growth; for Klebsiella pneumoniae MITC95: VIM-1 (IHMA599644)
In short: (§1)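 Restoration of imipenem susceptibility (1 μg/ml imipenem) was judged by absorbance after 22–24 h at 35° C. Test compound was added to bacteria suspended 1:100 in 1.1× CAMHB from overnight blood-agar cultures.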

[2] = system: Serratia marcescens expressing IMP-1 (CL5741); format: cell-based; conditions: with imipenem 1 μg/ml, 95% inhibition of bacterial growth; for Serratia marcescens MITC95: IMP-1 (CL5741)
In short: as §1

[3] = system: Escherichia coli expressing NDM-1 (CLB30005, CLB30016); format: cell-based; conditions: with imipenem 1 μg/ml, 95% inhibition of bacterial growth; for Escherichia coli MITC95: NDM-1 (CLB30016)
In short: as §1

IMP-1 = IMP-1 (Serratia marcescens, UniProt P52699); assay: biochemical; format: biochemical; conditions: CCF2-FA substrate, 2 hours at 25° C; read-out: IMP-1 IC50
IMP-1, sequence (P52699 whole entry, looked up, species assumed): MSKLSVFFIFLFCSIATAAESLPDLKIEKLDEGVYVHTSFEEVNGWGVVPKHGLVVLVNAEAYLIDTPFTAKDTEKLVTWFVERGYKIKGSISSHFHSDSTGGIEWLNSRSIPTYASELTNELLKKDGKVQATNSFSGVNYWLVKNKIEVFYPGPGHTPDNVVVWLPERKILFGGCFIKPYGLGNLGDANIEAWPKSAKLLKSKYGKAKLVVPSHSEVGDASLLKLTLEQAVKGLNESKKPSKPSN
In short: (§2)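 Semi-log dose-response curves, fitted with a 4-parameter model, gave IC50s. The underlying signal was CCF2-FA fluorescence following 2 hours at 25° C with enzyme, substrate and inhibitor combined.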

NDM-1 = NDM-1 (Klebsiella pneumoniae, UniProt C7C422); assay: biochemical; format: biochemical; conditions: CCF2-FA substrate, 2 hours at 25° C; read-out: NDM-1 IC50
NDM-1, sequence (C7C422 whole entry, looked up, species assumed): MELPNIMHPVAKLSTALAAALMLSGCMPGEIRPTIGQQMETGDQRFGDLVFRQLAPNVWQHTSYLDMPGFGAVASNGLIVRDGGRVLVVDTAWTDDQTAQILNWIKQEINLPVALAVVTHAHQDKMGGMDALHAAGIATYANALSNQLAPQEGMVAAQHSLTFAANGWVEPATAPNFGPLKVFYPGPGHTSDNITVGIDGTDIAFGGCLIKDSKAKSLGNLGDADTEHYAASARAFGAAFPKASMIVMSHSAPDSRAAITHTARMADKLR
In short: as §2

[4] = system: P. aeruginosa expressing IMP-1, efflux+ (MB9798); format: cell-based, Pseudomonas aeruginosa; conditions: for P. aeruginosa expressing IMP-1, efflux+ (MB9798) MITC95: imipenem at 2 μg/mL, in the presence of a class A, C, D serine β-lactamase inhibitor closely related to relebactam; for Efflux ratio: ratio MITC95 PA_9798/MITC95 PA_9799
Excerpt: (§3) The strain background is Pseudomonas aeruginosa PAO1.

[5] = system: P. aeruginosa expressing IMP-1, efflux− (MB9799); assay: Efflux: concentration of MBL inhibitor which restores susceptibility to imipenem; format: cell-based, Pseudomonas aeruginosa; conditions: imipenem at 2 μg/mL, in the presence of a class A, C, D serine β-lactamase inhibitor closely related to relebactam
Excerpt: as §3

VIM-1 = VIM-1 (Pseudomonas aeruginosa (strain ATCC 15692 / DSM 22644 / CIP 104116 / JCM 14847 / LMG 12228 / 1C / PRS 101 / PAO1), UniProt A0A0F7KYQ8); assay: biochemical; conditions: CCF2-FA substrate, 2 hours at 25° C
In short: as §2

## Cn1cnc2cc(-c3ccc(S(=O)(=O)C4CNC4)c(S(N)(=O)=O)c3-c3nnn[nH]3)cnc21.O=C(O)C(F)(F)F [Example 103, 3-((4-(3-methyl-3H-imidazo[4,5-b]pyridin-6-yl)-2-sulfamoyl-3-(1H-tetrazol-5-yl)phenyl)sulfonyl)azetidin-1-ium 2,2,2-trifluoroacetate]
[1]
  Klebsiella pneumoniae expressing VIM-1 (IHMA599644) MITC95: 6.25 µM
[2]
  Serratia marcescens expressing IMP-1 (CL5741) MITC95: 3.125 µM
[3]
  Escherichia coli expressing NDM-1 (CLB30016) MITC95: 12.5 µM
IMP-1
  IC50: 1.85 nM
NDM-1
  IC50: 0.954 nM
[4]
  P. aeruginosa expressing IMP-1, efflux+ (MB9798) MITC95: 12.5 µM
  Efflux ratio: 8.00
[5]
  P. aeruginosa expressing IMP-1, efflux− (MB9799) MITC95: 1.563 µM
VIM-1
  IC50: 0.581 nM

## NCCS(=O)(=O)c1ccc(-c2cccc3c2NC(=O)C3O)c(-c2nnn[nH]2)c1S(N)(=O)=O (stereo not drawn) [Example 347, 6-((2-Aminoethyl)sulfonyl)-3-(3-hydroxy-2-oxoindolin-7-yl)-2-(1H-tetrazol-5-yl)benzenesulfonamide]
[1]
  Klebsiella pneumoniae MITC95: 6.25 µM
[2]
  Serratia marcescens MITC95: 1.563 µM
[3]
  Escherichia coli MITC95: 3.125 µM
IMP-1
  IC50: 1.34 nM
NDM-1
  IC50: 1.73 nM
[4]
  P. aeruginosa expressing IMP-1, efflux+ (MB9798) MITC95: 12.5 µM
  Efflux ratio: 4.00
[5]
  P. aeruginosa expressing IMP-1, efflux− (MB9799) MITC95: 3.125 µM
VIM-1
  IC50: 0.933 nM

## C[C@@H](N)CS(=O)(=O)c1ccc(-c2cccc3sc(N)nc23)c(-c2nn[nH]n2)c1S(N)(=O)=O [Example 268, 3-(2-aminobenzo[d]thiazol-4-yl)-6-((R)-2-aminopropylsulfonyl)-2-(2H-tetrazol-5-yl)benzenesulfonamide]
[1]
  Klebsiella pneumoniae MITC95: 3.125 µM
[2]
  Serratia marcescens MITC95: 1.563 µM
[3]
  Escherichia coli MITC95: 1.563 µM
IMP-1
  IC50: 0.363 nM
NDM-1
  IC50: 0.177 nM
[4]
  P. aeruginosa expressing IMP-1, efflux+ (MB9798) MITC95: 1.563 µM
  Efflux ratio: 1.00
[5]
  P. aeruginosa expressing IMP-1, efflux− (MB9799) MITC95: 1.563 µM
VIM-1
  IC50: 0.329 nM

## COC(=O)CNC(=O)c1nc2c(-c3ccc(S(=O)(=O)C4CNC4)c(S(N)(=O)=O)c3-c3nn[nH]n3)cccc2[nH]1 [Example 256, Methyl (4-(4-(azetidin-3-ylsulfonyl)-3-sulfamoyl-2-(2H-tetrazol-5-yl)phenyl)-1H-benzo[d]imidazole-2-carbonyl)glycinate]
[1]
  Klebsiella pneumoniae MITC95: 12.5 µM
[2]
  Serratia marcescens MITC95: 6.25 µM
[3]
  Escherichia coli MITC95: 6.25 µM
IMP-1
  IC50: 0.999 nM
NDM-1
  IC50: 0.108 nM
[4]
  P. aeruginosa expressing IMP-1, efflux+ (MB9798) MITC95: 6.25 µM
  Efflux ratio: 1.00
[5]
  P. aeruginosa expressing IMP-1, efflux− (MB9799) MITC95: 6.25 µM
VIM-1
  IC50: 0.35 nM

## NCCS(=O)(=O)c1ccc(-c2cccc3[nH]cnc23)c(-c2nn[nH]n2)c1S(N)(=O)=O [Example 198, 6-((2-aminoethyl)sulfonyl)-3-(1H-benzo[d]imidazol-4-yl)-2-(2H-tetrazol-5-yl)benzenesulfonamide]
[1]
  Klebsiella pneumoniae expressing VIM-1 (IHMA599644) MITC95: 1.563 µM
[2]
  Serratia marcescens expressing IMP-1 (CL5741) MITC95: 1.563 µM
[3]
  Escherichia coli expressing NDM-1 (CLB30016) MITC95: 0.7813 µM
IMP-1
  IC50: 0.374 nM
NDM-1
  IC50: 0.238 nM
[4]
  P. aeruginosa expressing IMP-1, efflux+ (MB9798) MITC95: 0.7813 µM
  Efflux ratio: 1.00
[5]
  P. aeruginosa expressing IMP-1, efflux− (MB9799) MITC95: 0.7813 µM
VIM-1
  IC50: 0.206 nM

## CNC(=O)c1nc2c(-c3ccc(S(=O)(=O)C4CNC4)c(S(N)(=O)=O)c3-c3nn[nH]n3)cccc2[nH]1 [Example 255, 4-(4-(Azetidin-3-ylsulfonyl)-3-sulfamoyl-2-(2H-tetrazol-5-yl)phenyl)-N-methyl-1H-benzo[d]imidazole-2-carboxamide]
[1]
  Klebsiella pneumoniae MITC95: 12.5 µM
[2]
  Serratia marcescens MITC95: 6.25 µM
[3]
  Escherichia coli MITC95: 6.25 µM
IMP-1
  IC50: 1.66 nM
NDM-1
  IC50: 0.151 nM
[4]
  P. aeruginosa expressing IMP-1, efflux+ (MB9798) MITC95: 12.5 µM
  Efflux ratio: 4.00
[5]
  P. aeruginosa expressing IMP-1, efflux− (MB9799) MITC95: 3.125 µM
VIM-1
  IC50: 0.419 nM

## NCCN1CC(S(=O)(=O)c2ccc(-c3cccc4[nH]c(N)nc34)c(-c3nn[nH]n3)c2S(N)(=O)=O)C1 [Example 51, 3-(2-amino-1H-benzo[d]imidazol-4-yl)-6-(1-(2-aminoethyl)azetidin-3-ylsulfonyl)-2-(2H-tetrazol-5-yl)benzenesulfonamide]
[1]
  Klebsiella pneumoniae expressing VIM-1 (IHMA599644) MITC95: 1.563 µM
[2]
  Serratia marcescens expressing IMP-1 (CL5741) MITC95: 0.7813 µM
[3]
  Escherichia coli expressing NDM-1 (CLB30016) MITC95: 0.3906 µM
IMP-1
  IC50: 1.31 nM
NDM-1
  IC50: 0.145 nM
[4]
  P. aeruginosa expressing IMP-1, efflux+ (MB9798) MITC95: 0.7813 µM
  Efflux ratio: 1.00
[5]
  P. aeruginosa expressing IMP-1, efflux− (MB9799) MITC95: 0.7813 µM
VIM-1
  IC50: 0.426 nM

## NC[C@@H](CO)S(=O)(=O)c1ccc(-c2cccc3nc(N)[nH]c23)c(-c2nn[nH]n2)c1S(N)(=O)=O [Example 358, (S)-3-(2-amino-1H-benzo[d]imidazol-7-yl)-6-((1-amino-3-hydroxypropan-2-yl)sulfonyl)-2-(1H-tetrazol-5-yl) benzenesulfonamide]
[1]
  Klebsiella pneumoniae MITC95: 1.563 µM
[2]
  Serratia marcescens MITC95: 0.7813 µM
[3]
  Escherichia coli MITC95: 0.7813 µM
IMP-1
  IC50: 1.15 nM
NDM-1
  IC50: 0.221 nM
[4]
  P. aeruginosa expressing IMP-1, efflux+ (MB9798) MITC95: 0.7813 µM
  Efflux ratio: 1.00
[5]
  P. aeruginosa expressing IMP-1, efflux− (MB9799) MITC95: 0.7813 µM
VIM-1
  IC50: 0.789 nM

## NCCS(=O)(=O)c1ccc(-c2cccc(NC(=O)CN)c2)c(-c2nn[nH]n2)c1S(N)(=O)=O [Example 333, 2-Amino-N-(4′-((2-aminoethyl)sulfonyl)-3′-sulfamoyl-2′-(2H-tetrazol-5-yl)-[1,1′-biphenyl]-3-yl)acetamide]
[1]
  Klebsiella pneumoniae MITC95: 1.563 µM
[2]
  Serratia marcescens MITC95: 1.563 µM
[3]
  Escherichia coli MITC95: 0.3906 µM
IMP-1
  IC50: 10.3 nM
NDM-1
  IC50: 3.44 nM
[4]
  P. aeruginosa expressing IMP-1, efflux+ (MB9798) MITC95: 6.25 µM
  Efflux ratio: 8.00
[5]
  P. aeruginosa expressing IMP-1, efflux− (MB9799) MITC95: 0.7813 µM
VIM-1
  IC50: 0.312 nM

## Cc1cc(-c2ccc(S(=O)(=O)CCN)c(S(N)(=O)=O)c2-c2nnn[nH]2)cnc1N.O=C(O)C(F)(F)F [Example 172, 2-((4-(6-amino-5-methylpyridin-3-yl)-2-sulfamoyl-3-(1H-tetrazol-5-yl)phenyl)sulfonyl)ethanaminium 2,2,2-trifluoroacetate]
[1]
  Klebsiella pneumoniae expressing VIM-1 (IHMA599644) MITC95: 3.125 µM
[2]
  Serratia marcescens expressing IMP-1 (CL5741) MITC95: 1.281 µM
[3]
  Escherichia coli expressing NDM-1 (CLB30016) MITC95: 0.25 µM
IMP-1
  IC50: 4.9 nM
NDM-1
  IC50: 2.98 nM
[4]
  P. aeruginosa expressing IMP-1, efflux+ (MB9798) MITC95: 6.25 µM
  Efflux ratio: 3.51
[5]
  P. aeruginosa expressing IMP-1, efflux− (MB9799) MITC95: 1.781 µM
VIM-1
  IC50: 0.193 nM

## COc1ccc(Cc2cc3c(-c4ccc(S(=O)(=O)C5CNC5)c(S(N)(=O)=O)c4-c4nnn[nH]4)cccc3n2C)cc1 [Example 230, 6-(azetidin-3-ylsulfonyl)-3-(2-(4-methoxybenzyl)-1-methyl-1H-indol-4-yl)-2-(1H-tetrazol-5-yl)benzenesulfonamide]
[1]
  Klebsiella pneumoniae expressing VIM-1 (IHMA599644) MITC95: 25 µM
[2]
  Serratia marcescens expressing IMP-1 (CL5741) MITC95: 6.25 µM
[3]
  Escherichia coli expressing NDM-1 (CLB30016) MITC95: 6.25 µM
IMP-1
  IC50: 0.436 nM
NDM-1
  IC50: 0.11 nM
[4]
  P. aeruginosa expressing IMP-1, efflux+ (MB9798) MITC95: 100 µM
  Efflux ratio: 32.00
[5]
  P. aeruginosa expressing IMP-1, efflux− (MB9799) MITC95: 3.125 µM
VIM-1
  IC50: 0.356 nM
